In paper PMC11475408, “All‐Inorganic Polyoxometalates Act as Superchaotropic Membrane Carriers” (Advanced Materials (Deerfield Beach, Fla.), 2023):

What was measured:
[1] = tested on: CHO‐K1 cells; experiment: Cellular viability, resazurin assay; format: cell-based, Chinese hamster; conditions: CHO-K1, up to 10 µM carrier, 24 h, n = 3
Protocol: For cell viability assay in thepresence of activators, CHO‐K1 cells were incubated in Ham's F‐12 medium containing 10% fetal bovine serum and 1.0% penicillin streptomycin at 37 °C in a 5% CO2 for 24 h. CHO‐K1 cells were dispersed in a 96‐well flat bottom tissue culture treated plates (Eppendorf) at density of 5 × 10^3 cells per well (per 100 µL) and incubated in Ham's F‐12 containing 10% v/v fetal bovine serum at 37 °C in a 5% CO2 incubator for 12 h to allow cell adhesion. Then, cells were incubated with POM, B12Br12 ^2−, or PyBu (10, 50, and 100 µM) for another 24 h. After this incubation time, 20 µL resazurin solution (0.15 mg mL^−1) was added to cells and incubated for another 3 h. Finally, the plates were read at λ em = 590 nm (λ ex = 560 nm) using a JASCO fluorometer FP‐8500. The cell viability was evaluated by the following equation (4) Cellviability=FIsample−FIblank/FIcontrol−FIblank×100% where, FI sample is the fluorescence intensity of cells incubated with different compounds, FI blank is the fluorescence intensity of medium, and FI control is the fluorescence intensity of cells in absence of any compound.
6. Transport in cellular membranes
Figure S13. Viability of CHO-K1cells (resazurin assay) incubated with different carrier concentrations (0, 10, 50, and 100 µM) for 24 hours. Error bars refer to standard deviation (n = 3).
Figure S14. […]

[2] = tested on: methicillin-resistant Staphylococcus aureus (SR3605, ATCC43300); conditions: in combination with β-Lactamase; Mueller-Hinton broth, pH 7.4, 34 °C; ref [8]; cited from earlier work
Text: page 4: 2. Literature survey Table S1. Survey of experimentally proven membrane penetration of POMs according to a search in Scopus (“polyoxometalate” and “membrane penetration”) up to the submission date of the manuscript.

[3] = Membrane disruption of liposomes by POM alone (CF fluorescence, DLS); format: biochemical
Protocol: It should be noted that the addition of POMs alone (without cargo) retained the stability of the liposomes in the studied concentration range (up to 100 µM), that is, neither an increase in CF fluorescence nor changes in size distribution as obtained by dynamic light scattering experiments (DLS, see Figure S4, Supporting Information) were observed, which would have signaled membrane rupture. These negative controls allowed us to proceed to the carrier experiments, with added cargo.
DLS experiments of the vesicles were carried out on a Malvern Instruments DTS Nano 2000 Zeta‐Sizer. A POM concentration of 100 µM was chosen as default, since this is the highest concentration at which membrane transport was evaluated. The cargo concentration was set to be same as in the transport experiments, namely 10 µM for heptaarginine, 1 µM for protamine, and 0.1 µM for polyarginine. Note that the POMs themselves, with a size of ≈1 nm, fall below the detection limit (>10 nm) of the DLS instrument.
Figure S3. Transport activity, Y, for polyarginine (0.1 µM) in EYPC[…]CF liposomes as a function of the concentration of the different evaluated POMs. Solid lines correspond to the resulting fit with the Hill equation. Blue squares are data obtained at neutral pH, and red stars data obtained at acidic pH.
Table S4. Membrane transport parametersa) of active POMs at neutralb) and acidicc) pH.
HeptaArgd) Protaminee) PolyArgf) carrier pH Hydrolysis/Stability
Ymax [%]g) EC50h) [µM] E i) Ymax [%] EC50 [µM] E Ymax [%] EC50 [µM] E […]
Figure S5. Transport kinetics (left pannels), dose response curves (middle pannels) for cargo transport, and size distribution (by DLS, right pannels) for [PW12]3‒ (top) and [SiW12]4‒ (bottom), measured with EYPC[…]CF liposomes at pH 7.4, but preserving the POM solution at pH 1.2 before addition. As shown in panel a, the addition of [PW12]3‒ alone gave a fluorescence increase, pointing to membrane disruption, which was confirmed by DLS (panel c). […]

[4] = ref [11]; cited from earlier work
Text: Table 1 Stability of POMs in acidic and neutral pH and membrane transport parameters of different cargo molecules at pH 7.4 | column: Hydrolysis/stability / pH 5.5 ^e); Hydrolysis/stability / pH 7.5 ^f)

| Substance | Cell viability [1] | MIC [2] [µg/mL] | Membrane disruption with POM solution kept at pH 1.2 ([3]; POM alone added to liposomes, POM solution kept at pH 1.2, CF fluorescence) | Vesicle lysis at higher concentrations ([3]; higher than 100 µM POM, 10 mM Tris, 107 mM NaCl, pH 7.4) | Hydrolysis/stability pH 7.5 [4] |
| --- | --- | --- | --- | --- | --- |
| K4[α‐Si^IVMo^VIW^VI 11O40]·24H2O [[SiMoW11]^4‒] | about 80% | – | – | – | – |
| K4[α‐P^VV^VW^VI 11O40]·4H2O [[PVW11]^4‒] | about 80% | 800 | – | – | – |
| Na3[α‐P^VW^VI 12O40]·nH2O [[PW12]^3‒] | – | – | strong interaction and membrane disruption | led to vesicle lysis | to [P^VW^VI 9O34]^9‒ ^j) |
